Publication PMC7129073 (Clinical Microbiology and Infection, 2015)
Converted amounts (≈) assume the structure as drawn.

Legend:
N.gonorrhoeae = experiment: microbe, parasite or virus in culture; format: cell-based; settings: Neisseria gonorrhoeae
[1] = test system: Streptococcus pneumoniae (SPN); experiment: MIC; format: cell-based; settings: 8378 isolates
H.influenzae = experiment: Broth microdilution; format: cell-based, Haemophilus influenzae; settings: Haemophilus influenzae
[2] = test system: Streptococcus pyogenes (SPY); experiment: MIC; format: cell-based; settings: 2522 isolates
S. pneumoniae [3] = experiment: Broth microdilution; format: cell-based, Streptococcus pneumoniae
S. pneumoniae [4] = experiment: MIC of invasive strains, Saint George Hospital 2001–2004; format: cell-based, Streptococcus pneumoniae
PRSP = experiment: Broth microdilution; format: cell-based, Streptococcus pneumoniae
S.pneumoniae = experiment: Italian survey of severe infections 2003, MIC; format: cell-based, Streptococcus pneumoniae
S. pneumoniae (Sp) = experiment: Broth microdilution, point prevalence study Spain; format: cell-based, Streptococcus pneumoniae; settings: 360 isolates, February 2004; penicillin I+R
S. pneumoniae [5] = experiment: Broth microdilution; format: cell-based, Streptococcus pneumoniae; settings: 275 isolates
S. pneumoniae [6] = experiment: PROTEKT Italy, NCCLS microdilution; format: cell-based, Streptococcus pneumoniae
[7] = test system: ‘wild type’ Staphylococcus epidermidis skin isolates; experiment: NCCLS disk diffusion; format: cell-based; settings: 52 isolates
S. pneumoniae [8] = experiment: E-test MIC, children with URTI, Brazil; format: cell-based, Streptococcus pneumoniae
[9] = test system: viridans group streptococci (VGS); experiment: MIC; format: cell-based
[10] = test system: foreign body infection Staphylococcus epidermidis strains; experiment: NCCLS disk diffusion; format: cell-based; settings: 86 strains
[11] = test system: Haemophilus influenzae (HI); experiment: MIC; format: cell-based; settings: 7489 isolates
F. necrophorum = experiment: E-test, 13 clinical isolates; format: cell-based, Fusobacterium necrophorum
Streptococcus pneumoniae [12] = experiment: Susceptibility testing; format: cell-based; settings: 99 isolates tested
S. pneumoniae [13] = experiment: Susceptibility of bacteraemia isolates of children, Taiwan; format: cell-based, Streptococcus pneumoniae; settings: 79 isolates
ERSP = experiment: Broth microdilution; format: cell-based, Streptococcus pneumoniae
[14] = test system: viridans group streptococci (VgS) and Streptococcus bovis; experiment: Broth microdilution and disk diffusion; format: cell-based; settings: nine species
Streptococcus pneumoniae [15] = experiment: BSAC agar dilution, lower respiratory isolates UK and Ireland; format: cell-based
S. pneumoniae [16] = format: cell-based, Streptococcus pneumoniae
[17] = test system: Moraxella catarrhalis (MC); experiment: MIC; format: cell-based; settings: 2497 isolates
S. pneumoniae (SPN) = experiment: SENTRY Brazil, NCCLS broth microdilution; format: cell-based, Streptococcus pneumoniae
[18] = NCCLS breakpoints (Amox/Clav 2/1 mcg/mL)

CC1(C)S[C@@H]2[C@H](NC(=O)Cc3ccccc3)C(=O)N2[C@H]1C(=O)O [penicillin]
MIC (N.gonorrhoeae; strain 76mu6): 16 µg/mL (≈ 47.8 µM)
MIC (N.gonorrhoeae; strain 76mu10): 16 µg/mL (≈ 47.8 µM)
MIC (N.gonorrhoeae; strain 92mu6): 0.5 µg/mL (≈ 1.5 µM)
MIC (N.gonorrhoeae; strain 92mu13): 0.5 µg/mL (≈ 1.5 µM)
MIC90 [1]: 1 ig/ml
MIC90 (H.influenzae): > 16 µg/mL
MIC90 [2]: 0.03 ig/ml
%Sus (S. pneumoniae [3]; [18]): 60.6%
MIC90 (S. pneumoniae [3]; Streptococcus pneumoniae): 2 µg/mL (≈ 5.98 µM)
% S (S. pneumoniae [4]): 46%
%R (S. pneumoniae [4]): 54%
%Sus (PRSP; [18]): 0.0%
MIC90 (PRSP; Streptococcus pneumoniae, PRSP): 4 µg/mL (≈ 12 µM)
resistance (S.pneumoniae): 20.0%
resistance (S. pneumoniae (Sp)): 42%
Susceptibility (S. pneumoniae [5]): 83.6%
total resistance (S. pneumoniae [6]; year 1: 2002): 23.7%
total resistance (S. pneumoniae [6]; year 2: 2003): 23.4%
% resistant [7]: 46.2%
intermediate (I) (S. pneumoniae [8]; 137 isolates): 23.4%
resistant (R) (S. pneumoniae [8]; 137 isolates): 10.2%
susceptible (S) (S. pneumoniae [8]; 137 isolates): 66.4%
MIC90 (S. pneumoniae [8]; Streptococcus pneumoniae): 1.5 µg/mL (≈ 4.49 µM)
MIC50 [9]: 0.06 µg/mL (≈ 0.179 µM)
MIC90 [9]: 0.5 µg/mL (≈ 1.5 µM)
MIC range of isolates with reduced susceptibility [9]: 0.25 to 4 µg/mL
isolates with reduced susceptibility ([9]; 107 strains): 18.7%
% resistant [10]: More than 30%
MIC90 [11]: 8 ig/ml
MIC range (F. necrophorum): 0.004 to 256 µg/mL
MIC50 (F. necrophorum; Fusobacterium necrophorum): 0.016 µg/mL (≈ 0.0478 µM)
MIC90 (F. necrophorum; Fusobacterium necrophorum): > 32 µg/mL
resistant isolates (Streptococcus pneumoniae [12]): 14.1%
nonsusceptible isolates (MIC > 0.1 μg/mL) (S. pneumoniae [13]): 82%
%Sus (ERSP; [18]): 18.6%
MIC90 (ERSP; Streptococcus pneumoniae): 4 µg/mL (≈ 12 µM)
% S, range between species [14]: 65.5–98.1%
resistance (PEN-NS >0.06, TET-R >1, ERY-R >0.5, CIP-R >2 mg/L) (Streptococcus pneumoniae [15]; Ireland 1999–2000, N 66): 40.9%
resistance (same cut-offs) (Streptococcus pneumoniae [15]; Ireland 2000–2001, N 59): 42.4%
resistance (same cut-offs) (Streptococcus pneumoniae [15]; Ireland 2001–2002, N 68): 36.8%
resistance (same cut-offs) (Streptococcus pneumoniae [15]; Ireland 2002–2003, N 89): 24.7%
resistance (same cut-offs) (Streptococcus pneumoniae [15]; Ireland 2003–2004, N 76): 14.5%
resistance (same cut-offs) (Streptococcus pneumoniae [15]; UK 1999–2000, N 595): 7.4%
resistance (same cut-offs) (Streptococcus pneumoniae [15]; UK 2000–2001, N 608): 7.1%
resistance (same cut-offs) (Streptococcus pneumoniae [15]; UK 2001–2002, N 631): 4.6%
resistance (same cut-offs) (Streptococcus pneumoniae [15]; UK 2002–2003, N 683): 6.4%
resistance (same cut-offs) (Streptococcus pneumoniae [15]; UK 2003–2004, N 709): 5.9%
intermediate susceptible (S. pneumoniae [16]): 30%
MIC90 [17]: 8 ig/ml
% R (> 2 mg/L) to PEN (S. pneumoniae (SPN); 1998): 3%
% S (S. pneumoniae (SPN); 1998): 84%
% R (> 2 mg/L) to PEN (S. pneumoniae (SPN); 1999): 6%
% S (S. pneumoniae (SPN); 1999): 83%
% R (> 2 mg/L) to PEN (S. pneumoniae (SPN); 2000): 5%
% S (S. pneumoniae (SPN); 2000): 75%
% R (> 2 mg/L) to PEN (S. pneumoniae (SPN); 2001): 8%
% S (S. pneumoniae (SPN); 2001): 82%
% R (> 2 mg/L) to PEN (S. pneumoniae (SPN); 2002): 8%
% S (S. pneumoniae (SPN); 2002): 78%
% R (> 2 mg/L) to PEN (S. pneumoniae (SPN); 2003): 10%
% S (S. pneumoniae (SPN); 2003): 72%
